Measurements as given in paper PMC8115619, “Generation of a chemical genetic model for JAK3” (Scientific Reports, 2021).

Legend:
[1] = tested on: IL-4 induced STAT6 phosphorylation in spleenocytes; experiment: IL-4 induced STAT6 phosphorylation in spleenocytes; format: cell-based, mouse; conditions: wild type mice, inhibitor 1 h, 10 ng/ml IL-4 30 min
Description: (A) Single cell suspensions were prepared from the spleens of wild type mice. […] Cells were then stimulated with 10 ng/ml IL-4 for 30 min and the levels of phosphorylated STAT6 determined by immunoblotting. (B) As (A) except cells were stimulated with 10 ng/ml IL-2 and the levels of phosphorylated STAT5 determined. (C) CD8 T cells were expanded from the lymph nodes of wild type and JAK3 Cys905Ser knockin mice. Cells were rested in the absence of IL-2 for 60 min then incubated with the indicated concentrations of PF-06651600 for a further 30 min before stimulation with 10 ng/ml of IL-2 for 30 min. The levels of phosphorylated STAT5 and total ERK1/2 were then determined.
Cells were lysed directly into SDS sample buffer and aliquots run on 10% polyacrylamide gels using standard methods. Proteins were transferred onto nitrocellulose membranes, and specific proteins were detected by immunoblotting. […] Bands were detected using Clarity ECL reagents from BioRad and imaged on a Licor Odyssey Fc system. Quantification was carried out using Licor Image Studio software. After correction for the ERK1/2 levels to account for loading differences, percentage inhibition was calculated relative to the IL-4 stimulated condition. IC50 values were calculated using the same methods as for the in vitro IC50 values.

[2] = tested on: IL-4 induced STAT6 phosphorylation in wild type BMDMs; experiment: Inhibitor washout, IL-4 induced STAT6 phosphorylation, wild type BMDMs; format: cell-based, mouse; conditions: for inhibition of IL-4 induced STAT6 phosphorylation after inhibitor washout, wild type BMDMs: washed 3 times in PBS, IL-4 30 min to 2 h after washout, 10 μM TL6-144, 100 μM PF-06651600
Description: Covalent inhibitors would be predicted to have very slow off rates and therefore inhibition should remain even if the unbound inhibitors are washed out of the cells. To test this, cells were treated with a high concentration of inhibitor for 2 h before being washed 3 times in PBS and then incubated in media without inhibitor for 0.5 to 24 h. If the inhibitor acts via a non-covalent mechanism, inhibition would not be expected to remain following washout from the cells. Ruxolitinib is a non-covalent pan-JAK inhibitor that can inhibit multiple JAK-STAT pathways in macrophages. […] To confirm this was not the case, similar experiments were done in JAK3 Cys905Ser knockin cells. […] Similar experiments were also carried out with PF-06651600. […] As the level of inhibition was lower at 2 h post washout than 30 min the experiment was repeated to look at 4 and 24 h time points for the washout step.
Figure 4 Effect of inhibitor washout on JAK3 inhibition. BMDMs were isolated from wild type and JAK3 Cys905Ser knockin mice. […] The macrophages were then either stimulated with 10 ng/ml IL-4 for 30 min or washed 3 times in PBS and then incubated in media without inhibitor for the indicated times. The cells were then stimulated with IL-4 for 30 min and STAT6 phosphorylation determined by immunoblotting using levels of ERK1/2 as a loading control.
Bone marrow derived macrophages (BMDMs) were cultured as described. Briefly, bone marrow was flushed in PBS from the femurs and tibias of mice. Cells were cultured on bacterial grade plastic for 7 days at 37 °C, 5% CO2. Cells were then detached using Versene (Gibco), re-plated on tissue culture plastic in BMDM media (in DMEM supplemented with 10% heat inactivated FBS (Labtech), 2 mM L-glutamine, 100 U/ml penicillin G, 100 μg/ml streptomycin and 0.25 μg/ml amphotericin, 5 ng/ml M-CSF) and used within 48 h. Where indicated cells were stimulated with 10 ng/ml IL-4, 10 ng/ml GM-CSF, 10 ng/ml IL-10 or 10 ng/ml IFNβ. All cytokines were from PeproTech.
Cells were lysed directly into SDS sample buffer and aliquots run on 10% polyacrylamide gels using standard methods. Proteins were transferred onto nitrocellulose membranes, and specific proteins were detected by immunoblotting. Antibodies against tyrosine phosphorylated STATs were from Cell Signaling Technology (phospho-STAT1 #9167, phospho-STAT3 #9131, phospho-STAT5 #4322 and phospho-STAT6 #9361). The total ERK1/2 antibody used as a loading control was also from cell Signaling Technology (#4695). HRP-conjugated secondary antibodies were obtained from Pierce. Bands were detected using Clarity ECL reagents from BioRad and imaged on a Licor Odyssey Fc system. Quantification was carried out using Licor Image Studio software. After correction for the ERK1/2 levels to account for loading differences, percentage inhibition was calculated relative to the IL-4 stimulated condition. IC50 values were calculated using the same methods as for the in vitro IC50 values.

TBK1 = TBK1 (Homo sapiens, UniProt Q9UHD2); experiment: Selectivity screen TBK1; format: biochemical; conditions: 1 µM inhibitor, mean
Description: (§1) For the in vitro kinase assay, JAK3 (5–20 mU diluted in 50 mM Tris pH 7.5, 0.1 mM EGTA, 0.05% β-mercaptoethanol, 1 mg/ml BSA) was assayed against PDKtide ([…]) in a final volume of 25.5 µl containing 50 mM Tris pH 7.5, 0.1 mM EGTA, 0.05% β-mercaptoethanol, 100 µM substrate peptide, 10 mM magnesium acetate and 0.02 mM [33P-γ-ATP] (50–1000 cpm/pmole) and incubated for 30 min at room temperature. Assays were started by the addition of the ATP and stopped by addition of 5 µl of 0.5 M (3%) orthophosphoric acid and then harvested onto P81 Unifilter plates with a wash buffer of 50 mM orthophosphoric acid. To determine the Km for ATP, assays were run using 1, 5, 10, 20, 50, 100, 200, 400, 500 μM ATP and Km derived by non-linear regression fitting to the Michaelis–Menten equation v = Vmax[S]/(Km + [S]). IC50 values for inhibitors via non-linear regression using a parameter model: Y = Bottom + (Top–Bottom)/(1 + (IC50/X)^HillSlope). Non-linear regression was carried out in Prism (version 8). In vitro selectivity screen was carried out as described previously.

PDGFRA = PDGFRA (Homo sapiens, UniProt P16234); experiment: Selectivity screen PDGFRA; format: biochemical; conditions: 1 µM inhibitor, mean
PDGFRA, sequence (P16234 24-1089): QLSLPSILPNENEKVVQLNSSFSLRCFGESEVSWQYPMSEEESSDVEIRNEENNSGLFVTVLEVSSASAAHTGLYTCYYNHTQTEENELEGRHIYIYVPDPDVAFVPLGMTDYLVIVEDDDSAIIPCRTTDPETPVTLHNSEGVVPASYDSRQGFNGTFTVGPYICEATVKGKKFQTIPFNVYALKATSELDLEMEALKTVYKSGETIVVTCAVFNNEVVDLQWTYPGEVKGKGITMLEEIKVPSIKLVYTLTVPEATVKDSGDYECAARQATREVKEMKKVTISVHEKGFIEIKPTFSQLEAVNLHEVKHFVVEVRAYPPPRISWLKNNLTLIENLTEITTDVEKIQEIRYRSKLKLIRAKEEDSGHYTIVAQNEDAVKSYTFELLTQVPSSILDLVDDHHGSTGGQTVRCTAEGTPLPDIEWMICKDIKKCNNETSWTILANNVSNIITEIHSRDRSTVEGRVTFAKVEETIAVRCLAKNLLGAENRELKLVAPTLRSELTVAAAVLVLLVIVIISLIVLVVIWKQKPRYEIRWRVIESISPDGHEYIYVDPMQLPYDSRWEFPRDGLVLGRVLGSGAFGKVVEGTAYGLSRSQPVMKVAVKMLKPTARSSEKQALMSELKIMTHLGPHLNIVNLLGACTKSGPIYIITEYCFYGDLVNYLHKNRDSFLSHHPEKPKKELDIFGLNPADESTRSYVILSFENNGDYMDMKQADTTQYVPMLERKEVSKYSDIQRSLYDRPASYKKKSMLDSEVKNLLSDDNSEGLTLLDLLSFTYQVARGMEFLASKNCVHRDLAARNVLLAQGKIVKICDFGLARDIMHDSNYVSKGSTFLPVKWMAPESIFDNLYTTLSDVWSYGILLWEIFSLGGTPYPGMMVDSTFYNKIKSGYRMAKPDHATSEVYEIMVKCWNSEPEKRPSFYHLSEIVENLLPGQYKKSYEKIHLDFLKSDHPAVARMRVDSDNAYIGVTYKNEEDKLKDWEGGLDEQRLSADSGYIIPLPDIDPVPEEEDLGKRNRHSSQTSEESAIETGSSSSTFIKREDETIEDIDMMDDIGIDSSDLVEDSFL
Description: as §1

HIPK3 = HIPK3 (Homo sapiens, UniProt Q9H422); experiment: Selectivity screen HIPK3; format: biochemical; conditions: 1 µM inhibitor, mean
Description: as §1

MNK1 = MNK1 (Homo sapiens, UniProt Q9BUB5); experiment: Selectivity screen MNK1; format: biochemical; conditions: 1 µM inhibitor, mean
Description: as §1

TLK1 = TLK1 (Homo sapiens, UniProt Q9UKI8); experiment: Selectivity screen TLK1; format: biochemical; conditions: 1 µM inhibitor, mean
Description: as §1

SIK2 = SIK2 (Homo sapiens, UniProt Q9H0K1); experiment: Selectivity screen SIK2; format: biochemical; conditions: 1 µM inhibitor, mean
Description: as §1

RSK2 = RSK2 (Homo sapiens, UniProt P51812); experiment: Selectivity screen RSK2; format: biochemical; conditions: 1 µM inhibitor, mean
Description: as §1

MNK2 = MNK2 (Homo sapiens, UniProt Q9HBH9); experiment: Selectivity screen MNK2; format: biochemical; conditions: 1 µM inhibitor, mean
MNK2, sequence (Q9HBH9 whole entry): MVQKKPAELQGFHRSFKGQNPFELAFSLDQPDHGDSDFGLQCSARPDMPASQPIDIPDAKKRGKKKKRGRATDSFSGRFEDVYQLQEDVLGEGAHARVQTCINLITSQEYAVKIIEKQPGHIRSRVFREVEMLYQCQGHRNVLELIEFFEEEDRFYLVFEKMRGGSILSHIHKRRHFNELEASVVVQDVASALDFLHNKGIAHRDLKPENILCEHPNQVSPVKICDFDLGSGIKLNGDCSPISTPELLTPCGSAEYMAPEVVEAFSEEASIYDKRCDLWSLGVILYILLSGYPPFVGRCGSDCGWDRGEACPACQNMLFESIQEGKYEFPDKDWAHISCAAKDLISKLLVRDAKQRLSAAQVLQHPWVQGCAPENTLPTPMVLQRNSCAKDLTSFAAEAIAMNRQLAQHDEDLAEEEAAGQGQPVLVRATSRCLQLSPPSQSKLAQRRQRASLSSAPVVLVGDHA
Description: as §1

TAO1 = TAO1 (Homo sapiens, UniProt Q7L7X3); experiment: Selectivity screen TAO1; format: biochemical; conditions: 1 µM inhibitor, mean
TAO1, sequence (Q7L7X3 whole entry): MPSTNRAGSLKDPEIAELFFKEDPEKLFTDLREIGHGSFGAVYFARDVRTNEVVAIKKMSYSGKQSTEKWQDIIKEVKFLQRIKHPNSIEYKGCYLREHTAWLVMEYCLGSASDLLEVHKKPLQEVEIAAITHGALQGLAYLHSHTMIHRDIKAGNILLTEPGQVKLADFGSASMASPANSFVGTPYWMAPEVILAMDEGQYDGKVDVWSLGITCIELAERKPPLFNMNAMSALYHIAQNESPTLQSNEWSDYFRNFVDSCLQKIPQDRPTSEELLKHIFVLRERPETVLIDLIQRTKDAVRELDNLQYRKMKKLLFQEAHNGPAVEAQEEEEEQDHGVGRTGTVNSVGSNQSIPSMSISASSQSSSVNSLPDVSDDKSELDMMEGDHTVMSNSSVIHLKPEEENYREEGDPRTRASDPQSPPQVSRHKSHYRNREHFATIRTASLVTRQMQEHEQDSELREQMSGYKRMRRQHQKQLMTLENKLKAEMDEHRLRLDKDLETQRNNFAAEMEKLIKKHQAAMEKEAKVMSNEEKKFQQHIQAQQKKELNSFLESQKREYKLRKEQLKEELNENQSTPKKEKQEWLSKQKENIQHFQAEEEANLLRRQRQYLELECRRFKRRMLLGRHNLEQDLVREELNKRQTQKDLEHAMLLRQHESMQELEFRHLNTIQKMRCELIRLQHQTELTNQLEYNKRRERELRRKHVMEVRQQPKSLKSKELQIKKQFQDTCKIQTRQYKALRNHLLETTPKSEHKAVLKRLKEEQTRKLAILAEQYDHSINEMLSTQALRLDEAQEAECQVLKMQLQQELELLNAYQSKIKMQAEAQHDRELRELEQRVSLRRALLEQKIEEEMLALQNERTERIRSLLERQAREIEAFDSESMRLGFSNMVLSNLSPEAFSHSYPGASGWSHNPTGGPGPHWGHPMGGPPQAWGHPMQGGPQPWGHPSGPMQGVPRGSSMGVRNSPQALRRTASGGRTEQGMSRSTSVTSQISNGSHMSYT
Description: as §1

WNK1 = WNK1 (Homo sapiens, UniProt Q9H4A3); experiment: Selectivity screen WNK1; format: biochemical; conditions: 1 µM inhibitor, mean
WNK1, sequence (Q9H4A3 whole entry): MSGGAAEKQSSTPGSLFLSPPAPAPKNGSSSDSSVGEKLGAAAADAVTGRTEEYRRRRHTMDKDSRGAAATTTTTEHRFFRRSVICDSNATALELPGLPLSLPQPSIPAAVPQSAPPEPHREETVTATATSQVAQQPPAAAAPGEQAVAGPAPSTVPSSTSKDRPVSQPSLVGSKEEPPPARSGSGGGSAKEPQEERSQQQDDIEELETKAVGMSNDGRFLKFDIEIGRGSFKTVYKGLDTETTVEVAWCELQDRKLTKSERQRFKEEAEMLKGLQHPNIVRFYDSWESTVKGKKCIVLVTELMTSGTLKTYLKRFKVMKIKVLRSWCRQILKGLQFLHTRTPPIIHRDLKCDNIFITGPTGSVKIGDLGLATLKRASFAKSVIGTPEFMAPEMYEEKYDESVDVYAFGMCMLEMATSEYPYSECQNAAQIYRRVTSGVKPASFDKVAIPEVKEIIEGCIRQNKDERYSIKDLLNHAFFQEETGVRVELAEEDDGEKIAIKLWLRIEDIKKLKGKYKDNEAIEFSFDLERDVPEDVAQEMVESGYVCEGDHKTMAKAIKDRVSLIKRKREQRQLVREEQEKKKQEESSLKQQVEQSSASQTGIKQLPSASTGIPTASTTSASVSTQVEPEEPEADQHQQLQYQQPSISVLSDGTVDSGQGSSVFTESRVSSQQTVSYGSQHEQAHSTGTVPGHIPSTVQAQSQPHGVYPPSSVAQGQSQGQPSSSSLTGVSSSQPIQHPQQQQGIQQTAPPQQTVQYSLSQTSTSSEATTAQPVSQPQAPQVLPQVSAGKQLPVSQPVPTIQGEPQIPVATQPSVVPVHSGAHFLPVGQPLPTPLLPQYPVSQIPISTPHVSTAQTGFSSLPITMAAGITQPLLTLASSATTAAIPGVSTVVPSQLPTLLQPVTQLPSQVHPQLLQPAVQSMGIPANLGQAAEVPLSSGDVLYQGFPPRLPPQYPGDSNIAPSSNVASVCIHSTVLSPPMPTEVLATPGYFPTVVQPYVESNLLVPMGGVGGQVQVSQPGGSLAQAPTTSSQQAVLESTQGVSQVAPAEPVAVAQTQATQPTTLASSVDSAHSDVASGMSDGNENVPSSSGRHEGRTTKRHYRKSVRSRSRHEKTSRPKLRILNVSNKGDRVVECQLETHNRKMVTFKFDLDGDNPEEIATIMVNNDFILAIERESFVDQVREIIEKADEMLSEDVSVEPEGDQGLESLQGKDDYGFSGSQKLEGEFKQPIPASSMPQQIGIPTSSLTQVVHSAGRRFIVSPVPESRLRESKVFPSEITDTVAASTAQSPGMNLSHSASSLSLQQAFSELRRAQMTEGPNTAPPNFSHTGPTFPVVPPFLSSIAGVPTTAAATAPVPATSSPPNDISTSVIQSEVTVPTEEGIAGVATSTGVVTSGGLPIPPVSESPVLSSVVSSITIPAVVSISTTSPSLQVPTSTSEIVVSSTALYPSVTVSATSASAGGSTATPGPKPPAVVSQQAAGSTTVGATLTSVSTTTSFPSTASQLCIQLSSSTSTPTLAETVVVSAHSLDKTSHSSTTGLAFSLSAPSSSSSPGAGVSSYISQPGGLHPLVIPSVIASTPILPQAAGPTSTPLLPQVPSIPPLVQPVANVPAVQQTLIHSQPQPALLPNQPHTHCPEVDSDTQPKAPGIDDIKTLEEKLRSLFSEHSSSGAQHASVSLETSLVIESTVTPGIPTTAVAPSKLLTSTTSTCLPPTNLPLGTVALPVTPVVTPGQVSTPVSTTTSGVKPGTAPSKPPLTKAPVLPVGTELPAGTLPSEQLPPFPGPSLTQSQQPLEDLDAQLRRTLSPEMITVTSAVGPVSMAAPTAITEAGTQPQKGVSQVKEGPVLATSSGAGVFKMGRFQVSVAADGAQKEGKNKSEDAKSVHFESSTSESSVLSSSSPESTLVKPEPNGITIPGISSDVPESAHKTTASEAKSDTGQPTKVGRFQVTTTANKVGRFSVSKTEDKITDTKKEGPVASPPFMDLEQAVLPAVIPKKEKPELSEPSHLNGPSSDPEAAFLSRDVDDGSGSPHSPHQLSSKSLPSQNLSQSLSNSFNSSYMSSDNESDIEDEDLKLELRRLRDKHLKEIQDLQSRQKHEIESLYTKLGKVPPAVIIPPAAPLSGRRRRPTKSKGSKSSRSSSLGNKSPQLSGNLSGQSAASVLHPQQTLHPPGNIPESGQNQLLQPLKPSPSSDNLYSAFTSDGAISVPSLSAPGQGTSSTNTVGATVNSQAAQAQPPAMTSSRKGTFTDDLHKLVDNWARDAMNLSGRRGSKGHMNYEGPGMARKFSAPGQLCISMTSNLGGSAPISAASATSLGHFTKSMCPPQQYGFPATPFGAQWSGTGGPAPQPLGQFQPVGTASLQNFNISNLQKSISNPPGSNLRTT
Description: as §1

MPSK1 = MPSK1 (Homo sapiens, UniProt O75716); experiment: Selectivity screen MPSK1; format: biochemical; conditions: 1 µM inhibitor, mean
Description: as §1

MAPKAP-K2 = MAPKAP-K2 (Homo sapiens, UniProt P49137); experiment: Selectivity screen MAPKAP-K2; format: biochemical; conditions: 1 µM inhibitor, mean
Description: as §1

TrkA = TrkA (Homo sapiens, UniProt P04629); experiment: Selectivity screen TrkA; format: biochemical; conditions: 1 µM inhibitor, mean
Description: as §1

[3] = inhibitor 2 h, 0.5 μM Ruxolitinib

## C=CC(=O)N1C[C@H](Nc2ncnc3[nH]ccc23)CC[C@@H]1C [PF-06651600, 1-((2S,5R)-5-((7H-Pyrrolo[2,3-d]pyrimidin-4-yl)amino)-2-methylpiperidin-1-yl)prop-2-en-1-one, reference compound]
[1]
  block of IL-4 induced STAT6 phosphorylation in spleenocytes: able to block
[2]; 100 μM PF-06651600 for 2 h, washout, 24 h time point
  inhibition of IL-4 induced STAT6 phosphorylation 24 h after inhibitor washout, wild type BMDMs: Some inhibition was retained
[2]; [3]
  inhibition of IL-4 induced STAT6 phosphorylation after inhibitor washout, wild type BMDMs: retained

## C=CC(=O)Nc1cccc(CNc2nc(Nc3ccc(N4CCN(C)CC4)cc3OC)ncc2Cl)c1 [TL6-144]
TBK1
  activity remaining in the presence of the inhibitor: TBK1: 78
[2]; inhibitor 2 h, no washout, 0.5 μM Ruxolitinib, 10 μM TL6-144
  block of IL-4 induced STAT6 phosphorylation without washout, wild type BMDMs: completely blocked
[2]; [3]
  inhibition of IL-4 induced STAT6 phosphorylation after inhibitor washout, wild type BMDMs: much lower than in control cells
PDGFRA
  activity remaining in the presence of the inhibitor: PDGFRA: 67
HIPK3
  activity remaining in the presence of the inhibitor: HIPK3: 91
MNK1
  activity remaining in the presence of the inhibitor: MNK1: 105
TLK1
  activity remaining in the presence of the inhibitor: TLK1: 102
SIK2
  activity remaining in the presence of the inhibitor: SIK2: 58
RSK2
  activity remaining in the presence of the inhibitor: RSK2: 73
MNK2
  activity remaining in the presence of the inhibitor: MNK2: 70
TAO1
  activity remaining in the presence of the inhibitor: TAO1: 99
WNK1
  activity remaining in the presence of the inhibitor: WNK1: 81
MPSK1
  activity remaining in the presence of the inhibitor: MPSK1: 91
MAPKAP-K2
  activity remaining in the presence of the inhibitor: MAPKAP-K2: 103
TrkA
  activity remaining in the presence of the inhibitor: TrkA: 59

## C=CC(=O)Nc1cccc(CNc2nc(Nc3ccc(N4CCOCC4)cc3)ncc2Cl)c1 [TL8-52]
[1]
  block of IL-4 induced STAT6 phosphorylation in spleenocytes: able to block
TBK1
  activity remaining in the presence of the inhibitor: TBK1: 11
PDGFRA
  activity remaining in the presence of the inhibitor: PDGFRA: 35
HIPK3
  activity remaining in the presence of the inhibitor: HIPK3: 107
MNK1
  activity remaining in the presence of the inhibitor: MNK1: 112
TLK1
  activity remaining in the presence of the inhibitor: TLK1: 82
SIK2
  activity remaining in the presence of the inhibitor: SIK2: 31
RSK2
  activity remaining in the presence of the inhibitor: RSK2: 53
MNK2
  activity remaining in the presence of the inhibitor: MNK2: 66
TAO1
  activity remaining in the presence of the inhibitor: TAO1: 91
WNK1
  activity remaining in the presence of the inhibitor: WNK1: 112
MPSK1
  activity remaining in the presence of the inhibitor: MPSK1: 98
MAPKAP-K2
  activity remaining in the presence of the inhibitor: MAPKAP-K2: 97
TrkA
  activity remaining in the presence of the inhibitor: TrkA: 23
